Source: article PMC8168755, “Discovery of new VEGFR-2 inhibitors based on bis([1, 2, 4]triazolo)[4,3-a:3',4'-c]quinoxaline derivatives as anticancer agents and apoptosis inducers” (Journal of Enzyme Inhibition and Medicinal Chemistry, 2021)
Where two headings read alike, the source gives them in different places.

What was measured:
MCF-7 = assay: In vitro anti-proliferative activity (MTT assay), MCF-7; assay type: cell-based, human; conditions: read-out: IC50 (µM) MCF-7
Description: (§1) All newly prepared compounds were assessed for their in vitro cytotoxic efficiencies via standard MTT method, against breast cancer (MCF-7) and hepatocellular carcinoma (HepG2) cell lines.
(§2) MTT assay protocol[55–57]^,[74] was applied as described in Supplementary data.
(§3) Experimental of biological testing
(§4) 1. In vitro anti-proliferative activity
(§5) the synthesized compounds.
(§6) oC for 48 h under 5% CO2.
(§7) the synthesized compounds and incubated for 24 h.

HepG2 = assay: In vitro anti-proliferative activity (MTT assay), HepG2; assay type: cell-based, human; conditions: read-out: IC50 (µM) HepG2
Description: as §1, §2, §3, §4, §5, §6, §7

VEGFR-2 = VEGFR-2 (Homo sapiens, UniProt P35968); assay: biochemical
VEGFR-2, sequence (P35968 20-1356): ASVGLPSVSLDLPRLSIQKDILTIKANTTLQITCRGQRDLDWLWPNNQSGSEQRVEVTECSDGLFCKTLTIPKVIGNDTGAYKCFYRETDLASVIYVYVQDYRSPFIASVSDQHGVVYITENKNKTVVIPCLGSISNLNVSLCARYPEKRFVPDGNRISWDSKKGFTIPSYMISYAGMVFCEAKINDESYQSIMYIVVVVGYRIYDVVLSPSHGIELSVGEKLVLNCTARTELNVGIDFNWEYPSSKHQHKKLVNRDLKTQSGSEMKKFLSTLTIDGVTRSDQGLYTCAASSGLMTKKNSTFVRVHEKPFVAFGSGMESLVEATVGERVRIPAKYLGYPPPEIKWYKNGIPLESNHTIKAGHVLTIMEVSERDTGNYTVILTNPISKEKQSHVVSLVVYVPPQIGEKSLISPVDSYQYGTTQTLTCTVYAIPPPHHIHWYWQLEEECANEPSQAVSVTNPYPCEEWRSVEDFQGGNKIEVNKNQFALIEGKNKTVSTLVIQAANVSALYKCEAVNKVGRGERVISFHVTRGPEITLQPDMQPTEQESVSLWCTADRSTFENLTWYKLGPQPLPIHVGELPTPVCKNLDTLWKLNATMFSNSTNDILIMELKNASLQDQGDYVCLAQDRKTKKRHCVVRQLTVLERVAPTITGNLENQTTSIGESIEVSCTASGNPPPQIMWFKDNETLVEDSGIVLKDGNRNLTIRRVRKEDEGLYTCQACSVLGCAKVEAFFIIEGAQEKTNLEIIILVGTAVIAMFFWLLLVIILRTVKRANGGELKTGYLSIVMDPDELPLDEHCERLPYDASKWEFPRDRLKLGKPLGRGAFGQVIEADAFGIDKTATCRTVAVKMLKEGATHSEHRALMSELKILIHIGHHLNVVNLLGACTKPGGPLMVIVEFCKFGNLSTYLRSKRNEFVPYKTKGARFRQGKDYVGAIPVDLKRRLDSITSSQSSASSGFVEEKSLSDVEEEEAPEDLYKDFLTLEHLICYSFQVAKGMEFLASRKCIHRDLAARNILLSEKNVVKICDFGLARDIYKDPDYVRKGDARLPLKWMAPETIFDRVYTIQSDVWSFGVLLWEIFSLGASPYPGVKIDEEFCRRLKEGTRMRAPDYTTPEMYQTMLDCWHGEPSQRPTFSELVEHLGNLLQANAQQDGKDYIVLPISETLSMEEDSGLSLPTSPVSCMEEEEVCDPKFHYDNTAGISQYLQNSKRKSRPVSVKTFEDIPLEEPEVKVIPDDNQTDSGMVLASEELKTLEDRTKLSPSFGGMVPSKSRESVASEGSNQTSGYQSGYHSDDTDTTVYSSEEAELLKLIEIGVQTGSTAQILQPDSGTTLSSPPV
Description: All the synthesised compounds were tested for their inhibitory activity against VEGFR-2 as described in Supplementary data[75].
Experimental of biological testing […]
2. In vitro VEGFR-2 kinase assay
All the synthesized compounds were tested for its inhibitory activity against VEGFR-2. Human VEGFR-2 ELISA kit (Enzyme-Linked Immunosorbent Assay) was utilized in this test. At first, specific antibody for VEGFR-2 was seeded on a 96-well plate and 100 μL of the standard solution or the tested compound was added, all were incubated at room temperature for 2.5 h. Then washed, 100 μL of the prepared biotin antibody was added, then incubated at room temperature for additional 1 h. and washed. Then, 100 μL of streptavidin solution was added and incubated for 45 min. at room temperature. Washed again, 100 μL of TMB Substrate reagent was added and incubated for 30 min. at room temperature. 50 μL of the stop solution was added, then read at 450 […]
nm immediately. […]

[1] = test system: MCF-7 and HepG2 cell lines; assay: In vitro anti-proliferative activity (MTT assay), stated over both cell lines; assay type: cell-based; conditions: Homo sapiens, read-out: IC50 values ranging over the two cell lines (MCF-7 and HepG2)
BAX = conditions: HepG2, 24 h
Bcl-2 = conditions: HepG2, 24 h
[2] = Homo sapiens, MCF7, MTT, 24 h treatment, mean ± SD of three separate experiments
[3] = Homo sapiens, HepG2, MTT, 24 h treatment, mean ± SD of three separate experiments
[4] = mean ± SD of three separate experiments
[5] = MTT, range stated for a group of compounds and both cell lines
[6] = MTT, 24 h treatment, mean ± SD of three separate experiments
[7] = control 1.00, mean ± SEM of three experiments

IC50 (MCF-7; [2]) [µM]	IC50 (HepG2; [3]) [µM]	IC50 (VEGFR-2; [4]) [nM]	IC50 [1, 5] [µM]	SMILES	further results
42.7 ± 3.7	30.3 ± 2.7	22.3 ± 1.8	15.2 to 48.3	O=C(CSc1nnc2c3nncn3c3ccccc3n12)Nc1ccc(C(=O)NNC(=O)c2cccc(Cl)c2)cc1 [Compound 24b, 2-(Bis([1,2, 4]triazolo)[4,3-a:3',4'-c]quinoxalin-3-ylthio)-N-(4–(2-(3-chlorobenzoyl)hydrazine-1-carbonyl)phenyl)acetamide]	
16.5 ± 1.3	12.7 ± 0.9	7.4 ± 0.5	6.4 to 19.4	O=C(CSc1nnc2c3nncn3c3ccccc3n12)Nc1ccc(C(=O)Nc2ccc([N+](=O)[O-])cc2O)cc1 [Compound 23n, 4-(2-(Bis([1,2, 4]triazolo)[4,3-a:3′,4′-c]uinoxaline-3-ylthio)acetamido)-N-(2-hydroxy-4-nitrophenyl)benzamide]	
21.6 ± 1.7	15.2 ± 1.2	9.7 ± 0.7	15.2 to 48.3	O=C(CSc1nnc2c3nncn3c3ccccc3n12)Nc1ccc(C(=O)Nc2ccc(O)cc2)cc1 [Compound 23m, 4-(2-(Bis([1,2, 4]triazolo)[4,3-a:3′,4′-c]uinoxaline-3-ylthio)acetamido)-N-(4-hydroxyphenyl)benzamide]	
21.6 ± 1.8	17.5 ± 1.2	11.8 ± 0.8	15.2 to 48.3	CC(C)(C)NC(=O)c1ccc(NC(=O)CSc2nnc3c4nncn4c4ccccc4n23)cc1 [Compound 23d, 4-(2-(Bis([1,2, 4]triazolo)[4,3-a:3',4'-c]quinoxalin-3-ylthio)acetamido)-N-(tert-butyl)benzamide]	
3.51 ± 0.22	2.17 ± 0.14			CNC(=O)c1cc(Oc2ccc(NC(=O)Nc3ccc(Cl)c(C(F)(F)F)c3)cc2)ccn1 [Sorafenib, sorafenib, reference compound]	
78.9 ± 6.1	69.1 ± 6.1	71.6 ± 5.2		CCCCNC(=O)c1ccc(NC(=O)CSc2nnc3c4nncn4c4ccccc4n23)cc1 [Compound 23b, 4-(2-(Bis([1,2, 4]triazolo)[4,3-a:3',4'-c]quinoxalin-3-ylthio)acetamido)-N-butylbenzamide]	
				O=C(CSc1nnc2c3nncn3c3ccccc3n12)Nc1ccc(C(=O)Nc2cc(Cl)ccc2Cl)cc1 [Compound 23j, 4-(2-(Bis([1,2, 4]triazolo)[4,3-a:3′,4′-c]uinoxaline-3-ylthio)acetamido)-N-(2,5-dichlorophenyl)benzamide]	IC50 (MCF-7; [6]): 10.3 ± 0.8 µM; IC50 (HepG2; [6]): 6.4 ± 0.5 µM; IC50 (VEGFR-2): 3.7 ± 0.2 nM; Increase of BAX level (BAX; compared to control cells): 1.65 fold; Protein expression (normalized to β-actin) BAX (BAX; [7]): 1.65 ± 0.06; Decrease of Bcl-2 level (Bcl-2; compared to control cells): 2.63 fold; Protein expression (normalized to β-actin) Bcl-2 (Bcl-2; [7]): 0.38 ± 0.03
		9.4 ± 0.7		O=C(CSc1nnc2c3nncn3c3ccccc3n12)Nc1ccc(C(=O)Nc2ccc(Cl)cc2)cc1 [Compound 23i, 4-(2-(Bis([1,2, 4]triazolo)[4,3-a:3',4'-c]quinoxalin-3-ylthio)acetamido)-N-(4-chlorophenyl)benzamide]	
				O=C(CSc1nnc2c3nncn3c3ccccc3n12)Nc1ccc(C(=O)Nc2cccc(Cl)c2)cc1 [Compound 23h, 4-(2-(Bis([1,2, 4]triazolo)[4,3-a:3',4'-c]quinoxalin-3-ylthio)acetamido)-N-(3-chlorophenyl)benzamide]	IC50 (MCF-7; Homo sapiens, MCF7, 24 h): 37.2 ± 3.2 µM; IC50 (HepG2; Homo sapiens, HepG2, 24 h): 22.3 ± 1.8 µM; IC50 [1]: 15.2 to 48.3 µM; IC50 (VEGFR-2): 11.7 ± 0.9 nM
		5.8 ± 0.3		O=C(CSc1nnc2c3nncn3c3ccccc3n12)Nc1ccc(C(=O)Nc2ccccc2O)cc1 [Compound 23l, 4-(2-(Bis([1,2, 4]triazolo)[4,3-a:3′,4′-c]uinoxaline-3-ylthio)acetamido)-N-(2-hydroxyphenyl)benzamide]	IC50 (MCF-7; [6]): 19.4 ± 1.1 µM; IC50 (HepG2; [6]): 11.3 ± 0.7 µM
40.7 ± 3.7	29.8 ± 2.1	20.7 ± 1.6	15.2 to 48.3	O=C(CSc1nnc2c3nncn3c3ccccc3n12)Nc1ccc(C(=O)NNC(=O)c2ccccc2O)cc1 [Compound 24c, 2-(Bis([1,2, 4]triazolo)[4,3-a:3',4'-c]quinoxalin-3-ylthio)-N-(4–(2-(2-hydroxybenzoyl)hydrazine-1-carbonyl)phenyl)acetamide]	
17.7 ± 1.5	11.3 ± 0.9	7.1 ± 0.4	6.4 to 19.4	CCNC(=O)c1ccc(NC(=O)CSc2nnc3c4nncn4c4ccccc4n23)cc1 [Compound 23a, 4-(2-(Bis([1,2, 4]triazolo)[4,3-a:3',4'-c]quinoxalin-3-ylthio)acetamido)-N-ethylbenzamide]	
48.3 ± 3.9	34.5 ± 2.8	23.9 ± 1.9	15.2 to 48.3	O=C(CSc1nnc2c3nncn3c3ccccc3n12)Nc1ccc(C(=O)NNC(=O)c2ccccc2Cl)cc1 [Compound 24a, 2-(Bis([1,2, 4]triazolo)[4,3-a:3',4'-c]quinoxalin-3-ylthio)-N-(4–(2-(2-chlorobenzoyl)hydrazine-1-carbonyl)phenyl)acetamide]	

SMILES	IC50 (MCF-7; [2]) [µM]	IC50 (HepG2; [3]) [µM]	IC50 (VEGFR-2; [4]) [nM]	IC50 [1, 5] [µM]	further results
O=C(CSc1nnc2c3nncn3c3ccccc3n12)Nc1ccc(C(=O)NC2CCCC2)cc1 [Compound 23e, 4-(2-(Bis([1,2, 4]triazolo)[4,3-a:3',4'-c]quinoxalin-3-ylthio)acetamido)-N-cyclopentylbenzamide]	78.3 ± 6.5	74.8 ± 6.9	39.8 ± 3.1		
CC(=O)c1ccc(NC(=O)c2ccc(NC(=O)CSc3nnc4c5nncn5c5ccccc5n34)cc2)cc1 [Compound 23g, N-(4-Acetylphenyl)-4-(2-(bis([1,2, 4]triazolo)[4,3-a:3',4'-c]quinoxalin-3-ylthio)acetamido)benzamide]	81.3 ± 7.4	80.7 ± 7.1	62.7 ± 5.7		
CCC(C)NC(=O)c1ccc(NC(=O)CSc2nnc3c4nncn4c4ccccc4n23)cc1 (stereo not drawn) [Compound 23c, 4-(2-(Bis([1,2, 4]triazolo)[4,3-a:3',4'-c]quinoxalin-3-ylthio)acetamido)-N-(sec-butyl)benzamide]	76.2 ± 6.9	69.8 ± 5.9	47.1 ± 4.2		
O=C(CSc1nnc2c3nncn3c3ccccc3n12)Nc1ccc(C(=O)NC2CCCCC2)cc1 [Compound 23f, 4-(2-(Bis([1,2, 4]triazolo)[4,3-a:3',4'-c]quinoxalin-3-ylthio)acetamido)-N-cyclohexylbenzamide]	74.1 ± 6.7	70.4 ± 5.8	39.5 ± 2.9		
O=C(CSc1nnc2c3nncn3c3ccccc3n12)Nc1ccc(C(=O)Nc2ccc(F)cc2)cc1 [Compound 23k, 4-(2-(Bis([1,2, 4]triazolo)[4,3-a:3′,4′-c]uinoxaline-3-ylthio)acetamido)-N-(4-fluorophenyl)benzamide]	68.2 ± 5.2	71.8 ± 6.3	49.6 ± 4.1		
